Measured values reported in PMC10098121, “Amphipathic barbiturates as marine product mimics with cytolytic and immunogenic effects on head and neck squamous cell carcinoma cell lines” (Frontiers in Pharmacology, 2023).
Like-named read-outs stand apart in the source and are kept apart here.

Columns and labels:
HSC-3 = assay: High throughput drug screening (CellTiter-Glo, DSS); format: cell-based, human; conditions: for drug sensitivity score (DSS): HSC-3, 72 h, 10-100,000 nM, myogel, non-irradiated; for delta DSS (ΔDSS): HSC-3, DSS irradiated (2 Gy) minus DSS non-irradiated, >5 synergy, <–5 antagonism
Experimental: (§1) The MPMs were screened against a panel of […] different cell lines (HSC-3, UT-SCC-8, UT-SCC-24A, UT-SCC-24B, UT-SCC-42A, UT-SCC-42B and NOF) at the High Throughput Biomedicine Unit (HTB) at the Institute for Molecular Medicine Finland (FIMM). On day 1, black-walled 384-well plates were coated with 5 µl diluted myogel (0.5 mg/ml) per well using an automated reagent dispenser (MultiFlo FX, BioTek, Winooski, VT, United States). On day 2, 500 cells per well were seeded in 20 µl of complete media using the MultiFlo FX (BioTek), and the cells were left to adhere overnight. On day 3, the MPMs, cisplatin, DMSO and Benzethonium chloride were added to the cells using an automatic liquid handler (Echo 550, Labcyte Inc., San Jose, CA, United States). Cisplatin and the MPMs were added to yield five different concentrations in a ten-fold dilution series ranging from 10 to 100,000 nM. Each concentration was tested in triplicate wells. DMSO (0.1%) and benzethonium chloride (100 µM) served as negative and positive control, respectively. Three hours later, some of the plates were irradiated with 2 Gy in a gamma irradiator (OB29/4, STS, Braunschweig, Germany). All plates were taken to the irradiation room to ensure similar handling of the plates. 72 h later, the plates were cooled to room temperature before 25 µl of CellTiter-Glo 2.0 reagent (Promega, Madison, WI, USA) was added to each well using the MultiFlo FX (BioTek). Next, the plates were centrifuged for 5 min at 1,000 rpm before the luminescence signal was measured with the PHERAstar FS HT reader (BMG LABTECH GmbH, Ortenberg, Germany). The raw data was analyzed with the Breeze software (https://breeze.fmm.fi), which normalized the luminescence signal from treated cells against the signal from negative and positive control cells to calculate the percentage of inhibition and generate dose-response curves, which were then used to calculate drug sensitivity scores (DSS). The DSS is a parameter which combines the IC50, the slope of the dose-response curve, and the minimum and maximum responses into a single metric, as previously described ([Yadav et al., 2014]). Quality control was performed by calculation of the Z′-factor, which was >0.7 for all cell lines, indicating high quality of the assay ([Zhang et al., 1999]).

[1] = tested on: NOF (normal oral fibroblasts); assay: as above; format: cell-based, human; conditions: for drug sensitivity score (DSS): 72 h, 10-100,000 nM, myogel, non-irradiated; for delta DSS (ΔDSS): DSS irradiated (2 Gy) minus DSS non-irradiated, >5 synergy, <–5 antagonism
Experimental: as §1

UT-SCC-106A = assay: as above; format: cell-based, human; conditions: for drug sensitivity score (DSS): 72 h, 10-100,000 nM, myogel, non-irradiated; for delta DSS (ΔDSS): DSS irradiated (2 Gy) minus DSS non-irradiated, >5 synergy, <–5 antagonism
Experimental: as §1

UT-SCC-24A = assay: as above; format: cell-based, human; conditions: for drug sensitivity score (DSS): 72 h, 10-100,000 nM, myogel, non-irradiated; for delta DSS (ΔDSS): DSS irradiated (2 Gy) minus DSS non-irradiated, >5 synergy, <–5 antagonism
Experimental: as §1

UT-SCC-24B = assay: as above; format: cell-based, human; conditions: for drug sensitivity score (DSS): 72 h, 10-100,000 nM, myogel, non-irradiated; for delta DSS (ΔDSS): DSS irradiated (2 Gy) minus DSS non-irradiated, >5 synergy, <–5 antagonism
Experimental: as §1

UT-SCC-42A = assay: as above; format: cell-based, human; conditions: for drug sensitivity score (DSS): 72 h, 10-100,000 nM, myogel, non-irradiated; for delta DSS (ΔDSS): DSS irradiated (2 Gy) minus DSS non-irradiated, >5 synergy, <–5 antagonism
Experimental: as §1

UT-SCC-42B = assay: as above; format: cell-based, human; conditions: for drug sensitivity score (DSS): 72 h, 10-100,000 nM, myogel, non-irradiated; for delta DSS (ΔDSS): DSS irradiated (2 Gy) minus DSS non-irradiated, >5 synergy, <–5 antagonism
Experimental: as §1

UT-SCC-8 = assay: as above; format: cell-based, human; conditions: for drug sensitivity score (DSS): UT-SCC-8, 72 h, 10-100,000 nM, myogel, non-irradiated; for delta DSS (ΔDSS): UT-SCC-8, DSS irradiated (2 Gy) minus DSS non-irradiated, >5 synergy, <–5 antagonism
Experimental: as §1

[2] = tested on: seven HNSCC cell lines and one normal oral fibroblast cell line (NOF); assay: High throughput drug screening, statements on the whole panel; format: cell-based, human; conditions: DSS
Experimental: as §1

human red blood cells [3] = tested on: human red blood cells; design: method as in von Hofsten et al., 2022; conditions: highest concentration 500 μM; ref von Hofsten et al., 2022; read-out: EC50 hemolytic activity against human red blood cells; cited from earlier work
human red blood cells [4] = assay: Hemolysis assay; format: cell-based; conditions: for EC50: Homo sapiens, Erythrocyte, 1 h, 37°C, highest concentration tested 500 μM, average of three experiments, read-out: EC50 hemolytic activity against human red blood cells
Experimental: The hemolytic effect of the MPMs was determined using a hemolysis assay as previously described ([Paulsen et al., 2021]). Briefly, hemolysis was determined using a heparinized fraction (10 IU/mL) of freshly drawn blood. The blood collected in ethylenediaminetetraacetic acid-containing test tubes (Vacutest, KIMA, Arzergrande, Italy) was used for the determination of the hematocrit (hct). The heparinized blood was washed 3 × with pre-warmed phosphate-buffered saline (PBS) and adjusted to a final hct of 4%. MPMs in DMSO (50 mM) were added to a 96-well polypropylene V-bottom plate (NUNC, Fisher Scientific, Oslo, Norway) and serially diluted. The test concentration range was 4–500 μM with DMSO contents ≤1%. A solution of 1% triton X-100 was used as a positive control for 100% hemolysis. As a negative control, a solution of 1% DMSO in PBS was included. Red blood cells (1% v/v final concentration) were added to the well plate and incubated at 37°C and 800 rpm for 1 h. After centrifugation (5 min, 3000 g), 100 μL from each well was transferred to a 96-well flat-bottomed microtiter plate, and absorbance was measured at 545 nm with a microplate reader (VersaMaxTM, Molecular Devices, Sunnyvale, CA, United States). The percentage of hemolysis was calculated as the ratio of the absorbance in the MPM treated and surfactant-treated samples, corrected for the PBS background. Three independent experiments were performed, and EC50 values are presented as averages.

Bacillus subtilis 168 = assay: Bacterial minimum inhibitory concentration (broth microdilution); format: cell-based; conditions: Bacillus subtilis 168, 48 h, 35 °C, di-TFA salts
Experimental: (§2) Method for determination of bacterial minimum inhibitory concentration (MIC) Stock solutions of the water-soluble compounds were prepared by dissolving them in ultrapure water (Milli-Q H2O, Millipore, MA, USA). The less water-soluble compounds were first dissolved in 25 - 50 µL 100% DMSO before further dilution with ultrapure water. The DMSO concentration was always less than 1% in the working concentration of each compound. A modified broth microdilution susceptibility test based on the CLSI M07-A9 protocol, [2] was used to determine minimal inhibitory concentrations (MIC). Briefly, the test compounds were two-fold diluted with ultrapure water in polystyrene 96-well flat-bottom microplates (NUNC, Roskilde, Denmark). The bacterial inoculum was diluted to 2.5 - 3 x 10^4 cells/mL in Mueller-Hinton broth (MHB, Difco Laboratories, USA) and added to the different diluted compounds in a ratio of 1:1. Positive control (ciprofloxacin, Sigma-Aldrich, USA), negative control (bacteria + water), and media control (media + water) were included in each experiment. The microplates were incubated for 48 h at 35 °C in an EnVision microplate reader (PerkinElmer, Waltham, MA, USA). The lowest concentration of compounds that caused no bacterial growth, as determined by optical density (OD600) measurements, was defined as the MIC value. All compounds were tested in 3 technical replicates.
(§3) Supplementary Video S1. HSC-3 cells were seeded at 100% confluence and a standard scratch wound migration assay was performed. The cells were imaged every 2 hours for 24 hours. The video

[5] = tested on: Escherichia coli ATCC 25922; assay: as above; format: cell-based; conditions: ATCC25922; Escherichia coli ATCC 25922, 48 h, 35 °C, di-TFA salts
Experimental: as §2, §3

[6] = tested on: Pseudomonas aeruginosa ATCC 27853; assay: as above; format: cell-based; conditions: ATCC27853; Pseudomonas aeruginosa ATCC 27853, 48 h, 35 °C, di-TFA salts
Experimental: as §2, §3

[7] = tested on: Staphylococcus aureus ATCC 9144; assay: as above; format: cell-based; conditions: ATCC9144; Staphylococcus aureus ATCC 9144, 48 h, 35 °C, di-TFA salts
Experimental: as §2, §3

| SMILES | drug sensitivity score (DSS) (HSC-3) | delta DSS (ΔDSS) (HSC-3) | drug sensitivity score (DSS) [1] | delta DSS (ΔDSS) [1] | drug sensitivity score (DSS) (UT-SCC-106A) | delta DSS (ΔDSS) (UT-SCC-106A) | drug sensitivity score (DSS) (UT-SCC-24A) | delta DSS (ΔDSS) (UT-SCC-24A) | drug sensitivity score (DSS) (UT-SCC-24B) | delta DSS (ΔDSS) (UT-SCC-24B) | drug sensitivity score (DSS) (UT-SCC-42A) | delta DSS (ΔDSS) (UT-SCC-42A) | drug sensitivity score (DSS) (UT-SCC-42B) | delta DSS (ΔDSS) (UT-SCC-42B) | drug sensitivity score (DSS) (UT-SCC-8) | delta DSS (ΔDSS) (UT-SCC-8) | EC50 (human red blood cells [4]) [µM] | MIC (Bacillus subtilis 168) [µg/mL] | MIC [5] [µg/mL] | MIC [6] [µg/mL] | also measured |
| --- | --- | --- | --- | --- | --- | --- | --- | --- | --- | --- | --- | --- | --- | --- | --- | --- | --- | --- | --- | --- | --- |
| NCCCCN1C(=O)N(CCCCN)C(=O)C(CCCc2ccccc2)(CCCc2ccccc2)C1=O [MPM-1] | 8,8 | 0 | 17,1 | 0,4 | 10,3 | 0,3 | 6,9 | -1,1 | 9,7 | 0,5 | 8,4 | -0,8 | 7,4 | 0,6 | 10 | -0,8 | – | – | – | – | selectivity for cancer cell lines over NOFs (in words) ([2]; cancer lines and NOFs cultured in different media): slight tendency towards selectivity for the NOFs, which was especially prominent for MPM-1; EC50 (human red blood cells [3]): > 500 µM |
| CN(C)CCN1C(=O)N(CCN(C)C)C(=O)C(CCCc2ccccc2)(CCCc2ccccc2)C1=O [MPM-2:2] | 16,8 | 1,4 | 19,2 | -1,2 | 18,6 | -1,5 | 18,1 | -0,4 | 17,8 | -1,5 | 13,4 | 0,9 | 12,9 | -0,4 | 17 | 0,2 | > 500 | 32 | 32 | > 64 | MIC [7]: > 64 µg/mL |
| NCCCN1C(=O)N(CCCN)C(=O)C(CCCc2ccccc2)(CCCc2ccccc2)C1=O [MPM-3:0] | 16,1 | 0 | 18,3 | -0,6 | 17,1 | -0,6 | 14,3 | -1,8 | 18 | -0,6 | 11,7 | -1,1 | 10,1 | -0,1 | 16,5 | -0,6 | > 500 | 16 | 64 | 64 | MIC [7]: 32 µg/mL |
| CNCCCCN1C(=O)N(CCCCNC)C(=O)C(CCCc2ccccc2)(CCCc2ccccc2)C1=O [MPM-4:1] | 14,8 | -0,4 | 18,5 | -0,8 | 15,8 | -0,8 | 15,5 | -1,6 | 16,4 | -0,5 | 9,9 | -0,1 | 10,2 | -1,1 | 14,5 | 0,6 | > 500 | 8 | > 64 | > 64 | MIC [7]: 32 µg/mL |
| C[N+](C)(C)CCCCN1C(=O)N(CCCC[N+](C)(C)C)C(=O)C(CCCc2ccccc2)(CCCc2ccccc2)C1=O [MPM-4:3] | 0 | 0 | 2,2 | -1,4 | 0,5 | -0,5 | 0 | 0 | 0 | 0,1 | 0,1 | 0 | 0,1 | -0,1 | 0 | 0 | > 500 | > 64 | 64 | > 64 | MIC [7]: 64 µg/mL; potency / effect on viability over the cell line panel (in words) ([2]; 72 h): completely inactive |
| NCCCCCN1C(=O)N(CCCCCN)C(=O)C(CCCc2ccccc2)(CCCc2ccccc2)C1=O [MPM-5:0] | 17,6 | 0,2 | 19 | -1,2 | 17,9 | -1 | 17,4 | -1,2 | 18,2 | -0,5 | 13,5 | -0,8 | 11,5 | -0,5 | 18,1 | 0,4 | 313 | 4 | 32 | 32 | hemolytic activity against red blood cells (in words) (human red blood cells [4]; test range 4–500 μM): the second lowest RBC EC50; MIC [7]: 8 µg/mL |
